Test results taken from paper PMC6321168, “Comparative Study on Excretive Characterization of Main Components in Herb Pair Notoginseng-Safflower and Single Herbs by LC–MS/MS” (Pharmaceutics, 2018).

Experiment: Urinary excretion study in rats after oral NS, SF or CNS (LC–MS/MS)
Format: in vivo
Conditions: for concentration at 2 h / concentration at 4 h / concentration at 8 h / concentration at 12 h / concentration at 24 h / concentration at 36 h / concentration at 48 h / concentration at 72 h / concentration at 96 h / concentration at 120 h / concentration at 6 h: male, Sprague Dawley, rat, urine, oral; for Accumulative excretion amount / Accumulative excretion percentage / Excretion amount: rat urine
Method in brief: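 Fasted male rats (n = 6/group) received NS 60 mg/kg, SF 50 mg/kg, or both, by oral gavage. Urine was collected over 0–120 h in metabolic cages and analysed by negative-ESI MRM LC–MS/MS. Cumulative excretion is expressed as a percentage of the ingested dose.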

Structure (SMILES): CC(C)=CCC[C@](C)(O[C@@H]1O[C@H](CO)[C@@H](O)[C@H](O)[C@H]1O)[C@H]1CC[C@]2(C)[C@@H]1[C@H](O)C[C@@H]1[C@@]3(C)CC[C@H](O[C@@H]4O[C@H](CO)[C@@H](O)[C@H](O)[C@H]4O[C@@H]4O[C@H](CO)[C@@H](O)[C@H](O)[C@H]4O)C(C)(C)[C@@H]3CC[C@]12C [ginsenoside Rd]
- concentration at 2 h (60 mg/kg, oral NS 60 mg/kg, 2 h): 17 ± 39 ng/mL
- concentration at 4 h (60 mg/kg, oral NS 60 mg/kg, 4 h): 33 ± 69 ng/mL
- concentration at 8 h (60 mg/kg, oral NS 60 mg/kg, 8 h): 9 ± 12 ng/mL
- concentration at 12 h (60 mg/kg, oral NS 60 mg/kg, 12 h): 28 ± 19 ng/mL
- concentration at 24 h (60 mg/kg, oral NS 60 mg/kg, 24 h): 34 ± 63 ng/mL
- concentration at 36 h (60 mg/kg, oral NS 60 mg/kg, 36 h): 17 ± 33 ng/mL
- concentration at 48 h (60 mg/kg, oral NS 60 mg/kg, 48 h): 12 ± 19 ng/mL
- concentration at 72 h (60 mg/kg, oral NS 60 mg/kg, 72 h): 12 ± 23 ng/mL
- concentration at 96 h (60 mg/kg, oral NS 60 mg/kg, 96 h): 6 ± 10 ng/mL
- concentration at 120 h (60 mg/kg, oral NS 60 mg/kg, 120 h): 3 ± 6 ng/mL
- concentration at 2 h (oral CNS 110 mg/kg, 2 h): 22 ± 42 ng/mL
- concentration at 4 h (oral CNS 110 mg/kg, 4 h): 9 ± 15 ng/mL
- concentration at 6 h (oral CNS 110 mg/kg, 6 h): 17 ± 16 ng/mL
- concentration at 8 h (oral CNS 110 mg/kg, 8 h): 38 ± 75 ng/mL
- concentration at 12 h (oral CNS 110 mg/kg, 12 h): 53 ± 110 ng/mL
- concentration at 24 h (oral CNS 110 mg/kg, 24 h): 315 ± 787 ng/mL
- concentration at 36 h (oral CNS 110 mg/kg, 36 h): 41 ± 68 ng/mL
- concentration at 48 h (oral CNS 110 mg/kg, 48 h): 30 ± 70 ng/mL
- concentration at 72 h (oral CNS 110 mg/kg, 72 h): 16 ± 35 ng/mL
- concentration at 96 h (oral CNS 110 mg/kg, 96 h): 16 ± 36 ng/mL
- concentration at 120 h (oral CNS 110 mg/kg, 120 h): 10 ± 17 ng/mL
- concentration at 6 h (oral NS 60 mg/kg, 6 h): 10 ± 18 ng/mL
- Accumulative excretion amount (oral CNS 110 mg/kg, 2 h): 0.005 ± 0.005 µg
- Accumulative excretion percentage (oral CNS 110 mg/kg, 2 h): 0.001±0.001%
- Excretion amount (oral CNS 110 mg/kg, 2 h): 0.005 ± 0.005 µg
- Accumulative excretion amount (oral CNS 110 mg/kg, 4 h): 0.009 ± 0.008 µg
- Accumulative excretion percentage (oral CNS 110 mg/kg, 4 h): 0.001±0.001%
- Excretion amount (oral CNS 110 mg/kg, 4 h): 0.005 ± 0.007 µg
- Accumulative excretion amount (oral CNS 110 mg/kg, 6 h): 0.024 ± 0.023 µg
- Accumulative excretion percentage (oral CNS 110 mg/kg, 6 h): 0.003±0.003%
- Excretion amount (oral CNS 110 mg/kg, 6 h): 0.018 ± 0.018 µg
- Accumulative excretion amount (oral CNS 110 mg/kg, 8 h): 0.029 ± 0.024 µg
- Accumulative excretion percentage (oral CNS 110 mg/kg, 8 h): 0.004±0.003%
- Excretion amount (oral CNS 110 mg/kg, 8 h): 0.010 ± 0.009 µg
- Accumulative excretion amount (oral CNS 110 mg/kg, 12 h): 0.045 ± 0.040 µg
- Accumulative excretion percentage (oral CNS 110 mg/kg, 12 h): 0.006±0.005%
- Excretion amount (oral CNS 110 mg/kg, 12 h): 0.019 ± 0.016 µg
- Accumulative excretion amount (oral CNS 110 mg/kg, 24 h): 0.103 ± 0.083 µg
- Accumulative excretion percentage (oral CNS 110 mg/kg, 24 h): 0.014±0.011%
- Excretion amount (oral CNS 110 mg/kg, 24 h): 0.058 ± 0.066 µg
- Accumulative excretion amount (oral CNS 110 mg/kg, 36 h): 0.114 ± 0.086 µg
- Accumulative excretion percentage (oral CNS 110 mg/kg, 36 h): 0.015±0.011%
- Excretion amount (oral CNS 110 mg/kg, 36 h): 0.011 ± 0.009 µg
- Accumulative excretion amount (oral CNS 110 mg/kg, 48 h): 0.135 ± 0.096 µg
- Accumulative excretion percentage (oral CNS 110 mg/kg, 48 h): 0.018±0.013%
- Excretion amount (oral CNS 110 mg/kg, 48 h): 0.021 ± 0.024 µg
- Accumulative excretion amount (oral CNS 110 mg/kg, 72 h): 0.139 ± 0.098 µg
- Accumulative excretion percentage (oral CNS 110 mg/kg, 72 h): 0.018±0.013%
- Excretion amount (oral CNS 110 mg/kg, 72 h): 0.004 ± 0.004 µg
- Accumulative excretion amount (oral CNS 110 mg/kg, 96 h): 0.144 ± 0.100 µg
- Accumulative excretion percentage (oral CNS 110 mg/kg, 96 h): 0.019±0.013%
- Excretion amount (oral CNS 110 mg/kg, 96 h): 0.005 ± 0.005 µg
- Accumulative excretion amount (oral CNS 110 mg/kg, 120 h): 0.148 ± 0.101 µg
- Accumulative excretion percentage (oral CNS 110 mg/kg, 120 h): 0.019±0.013%
- Excretion amount (oral CNS 110 mg/kg, 120 h): 0.004 ± 0.004 µg
- Accumulative excretion amount (oral NS 60 mg/kg, 2 h): 0.022 ± 0.025 µg
- Accumulative excretion percentage (oral NS 60 mg/kg, 2 h): 0.002±0.003%
- Excretion amount (oral NS 60 mg/kg, 2 h): 0.022 ± 0.025 µg
- Accumulative excretion amount (oral NS 60 mg/kg, 4 h): 0.027 ± 0.029 µg
- Accumulative excretion percentage (oral NS 60 mg/kg, 4 h): 0.003±0.003%
- Excretion amount (oral NS 60 mg/kg, 4 h): 0.008 ± 0.003 µg
- Accumulative excretion amount (oral NS 60 mg/kg, 6 h): 0.048 ± 0.039 µg
- Accumulative excretion percentage (oral NS 60 mg/kg, 6 h): 0.006±0.004%
- Excretion amount (oral NS 60 mg/kg, 6 h): 0.021 ± 0.020 µg
- Accumulative excretion amount (oral NS 60 mg/kg, 8 h): 0.097 ± 0.129 µg
- Accumulative excretion percentage (oral NS 60 mg/kg, 8 h): 0.011±0.015%
- Excretion amount (oral NS 60 mg/kg, 8 h): 0.082 ± 0.123 µg
- Accumulative excretion amount (oral NS 60 mg/kg, 12 h): 0.173 ± 0.206 µg
- Accumulative excretion percentage (oral NS 60 mg/kg, 12 h): 0.020±0.024%
- Excretion amount (oral NS 60 mg/kg, 12 h): 0.076 ± 0.083 µg
- Accumulative excretion amount (oral NS 60 mg/kg, 24 h): 0.279 ± 0.198 µg
- Accumulative excretion percentage (oral NS 60 mg/kg, 24 h): 0.032±0.023%
- Excretion amount (oral NS 60 mg/kg, 24 h): 0.106 ± 0.109 µg
- Accumulative excretion amount (oral NS 60 mg/kg, 36 h): 0.311 ± 0.182 µg
- Accumulative excretion percentage (oral NS 60 mg/kg, 36 h): 0.036±0.021%
- Excretion amount (oral NS 60 mg/kg, 36 h): 0.041 ± 0.012 µg
- Accumulative excretion amount (oral NS 60 mg/kg, 48 h): 0.359 ± 0.187 µg
- Accumulative excretion percentage (oral NS 60 mg/kg, 48 h): 0.041±0.021%
- Excretion amount (oral NS 60 mg/kg, 48 h): 0.048 ± 0.045 µg
- Accumulative excretion amount (oral NS 60 mg/kg, 72 h): 0.372 ± 0.200 µg
- Accumulative excretion percentage (oral NS 60 mg/kg, 72 h): 0.043±0.023%
- Excretion amount (oral NS 60 mg/kg, 72 h): 0.013 ± 0.018 µg
- Accumulative excretion amount (oral NS 60 mg/kg, 96 h): 0.379 ± 0.211 µg
- Accumulative excretion percentage (oral NS 60 mg/kg, 96 h): 0.044±0.024%
- Excretion amount (oral NS 60 mg/kg, 96 h): 0.008 ± 0.013 µg
- Accumulative excretion amount (oral NS 60 mg/kg, 120 h): 0.386 ± 0.221 µg
- Accumulative excretion percentage (oral NS 60 mg/kg, 120 h): 0.044±0.025%
- Excretion amount (oral NS 60 mg/kg, 120 h): 0.007 ± 0.012 µg
